Marks after values point to notes of the source that are not given here. Where no end group is shown, it is not given here.

The source of these data is publication PMC12466602, “Novel Hybrid Peptide DEFB126 (1-39)-TP5 Inhibits LPS-Induced Inflammatory Responses and Oxidative Stress by Neutralizing LPS and Blocking the TLR4/MD2-NFκB Signaling Axis” (Antioxidants, 2025).

The test system of data set [1] is phosphorylation of IKK-β, IκB-α and NF-κB. The experiment in a line: Western blot of NF-κB signaling pathway. It counts as cell-based. Particulars: LPS-stimulated. As to the method: Samples were fractionated into cytoplasmic and nuclear components using the NR-PER Nuclear and Cytoplasmic Protein Extraction Kit (Thermo Fisher Scientific Inc., Waltham, MA, USA). Protein levels in each fraction were determined via a bicinchoninic acid (BCA) assay (KeyGEN Biotech, Nanjing, China). Subsequently, protein fractions were separated by 10% SDS-polyacrylamide gel electrophoresis and transferred to methanol-activated PVDF membranes (Bio-Rad, Hercules, CA, USA). After membrane transfer, the membranes were blocked with 5% skimmed milk, followed by incubation with phosphorylated antibodies: p-IKK-β, p-IкB-α, p-NF-кB (p-p65), and GAPDH (Santa Cruz), with shaking overnight at 4 °C. After TBST washing, the membranes were incubated with HRP-labeled species-matched secondary antibody (HuaAn Biologicals, Hangzhou, China) for 60 min at room temperature. The density of specific proteins was quantified using the ChemiDoc MP imaging system (Bio-Rad, Hercules, CA, USA).
For orientation: In western blotting, separated proteins are transferred to a membrane and probed.

For another data set, the system named is LPS-induced sepsis model. The data set is described as follows: Murine LPS-induced sepsis / liver injury model. Particulars: mice. In kind it is in vivo, C57BL/6 mice. As to the method:
Male C57BL/6 mice (6–8 weeks of age) were purchased from Charles River (Beijing, China). During the experiments, mice were housed in a specific-pathogen-free (SPF) environment with a temperature of 22 ± 1 °C and a relative humidity of 55 ± 10%. All the animal experiments were conducted with the approval of the Animal Care and Use Committee of China Agricultural University.
The mice were randomly divided into five groups of 12: control, LPS (E. coli O111: B4, Sigma-Aldrich, St. Louis, MO, USA), DEFB126 + LPS, TP5 + LPS, and DTP + LPS. The corresponding peptide (10 mg/kg) was injected intraperitoneally during the pretreatment stage. The control group was synchronized with the LPS group by injecting an equal amount of saline.
During the first 7 days of the experiment, each group received the above treatments once a day. On day 7, the LPS model group and the peptide pretreatment groups (DEFB126 + LPS, TP5 + LPS, and DTP + LPS) were injected intraperitoneally with 20 mg/kg of LPS to establish a sepsis model. The control group was injected with an equal volume of saline. Sixteen hours after the LPS injection, the mice were euthanized, and liver tissues and blood samples were collected. The serum was then separated by centrifugation and stored at −80 °C for measurement.
Mouse liver tissues were fixed with 4% paraformaldehyde, embedded in paraffin, and sliced continuously on a rotary slicer (Leica, RM2235, Nußloch, Germany) at a thickness of 5 μm. After dewaxing and rehydration, the tissues were subjected to Hematoxylin-Eosin (H&E) contrast staining. LPS-induced liver injury was evaluated according to a previous study. The liver injury score was graded on a 0- to 3-point scale: 0, no injury; 1, mild injury with cytoplasmic vacuolation; 2, moderate to severe injury consisting of extensive loss of intercellular borders and nuclear pyknosis; and 3, severe necrosis consisting of liver hemorrhage and neutrophil infiltration.
The levels of tumor necrosis factor (TNF)-α, interleukin (IL)-6, and IL-1β in the serum of mice were detected using commercial ELISA kits (eBioscience, San Diego, CA, USA). Commercial reagent kits (Nanjing Jiancheng Bioengineering Institute, Nanjing, China) were used to detect the levels of serum alanine amino transferase (ALT) and aspartate amino transferase (AST).

The test system of another data set is RAW264.7 cells. The experiment in a line: ROS generation (DCFH2-DA, fluorescence microscopy and flow cytometry). It counts as cell-based. Particulars: RAW264.7, LPS 100 ng/mL 1 h, then DTP 12 h. As for the experimental part:
RAW264.7 cells (1 × 10^5 cells/mL cell density) were incubated with LPS (100 ng/mL) at 37 °C for 1 h. After that, cells were treated with DTP at 37 °C for 12 h. The cells were then stained with 5 μM DCFH2-DA for 30 min at 37 °C in the dark. The cells were then washed extensively with PBS before analysis by fluorescence microscope and flow cytometry.
(In general: In flow cytometry, cells or beads pass a laser one at a time.)

Data set [2] is described as follows: Ex vivo stability in plasma (HPLC). The settings on record: rat plasma, peptide 10 µg/mL, 37 °C, linear regression of log concentration-time, mean ± SD of 3 biological replicates.
Method: (§1) The above peptide solutions were incubated at 37 °C for varying lengths of time and then immediately transferred to pre-cooled test tubes containing 1 mL of acidic acetone (hydrochloric acid/acetone/H2O, v/v/v 1:40:5) to terminate the reaction. The concentration of the hydrochloric acid solution before dilution is 50 mM. The precipitate was subsequently separated by centrifugation at 20,000× g for 20 min at 4 °C. The obtained precipitates were dried in vacuo and then dissolved in 0.5 mL of 1 M acetic acid. Peptide analysis was conducted according to the protocol for the study of TP5 using HPLC [2]. Peptide half-lives were obtained by fitting a linear regression model based on logarithmic concentration-time.
The subject of a further data set is RAW264.7 macrophages. The data set is described as follows: CCK-8 cell viability assay. The settings on record: 24 h; for cell survival rate: RAW264.7, 10 μg/mL peptide, CCK-8, OD450. (In general: Formazan colour is commonly taken as a measure of viable cells.)
The nature of data set [3]: LPS neutralization, Chromogenic End-point Tachypleus Amebocyte Lysate (CE TAL) assay. It counts as biochemical, E. coli. Particulars: LPS 1.0 U/mL, peptide 0 to 128 μg/mL, 15 min at 37 °C, OD540; mean ± SD of 3 independent experiments. As for the experimental part: The LPS-neutralizing ability of the peptides was assessed through a quantitative Chromogenic End-point Tachypleus Amebocyte Lysate (CE TAL) assay (Xiamen Bioendo Technology Co., Xiamen, China). LPS (final concentration 1.0 U/mL; E. coli, O55:B5) was incubated with different concentrations of the peptides (final concentration 0 to 128 μg/mL) for 15 min at 37 °C. Then, the mixtures were incubated with TAL assay reagent at 37 °C for 6 min, and the optical density at 540 nm was measured.

A short description of the next data set: in vitro. The settings on record: rat, plasma.
The target of data set [4] is Toll-like receptor 4/myeloid differentiation factor 2 (TLR4/MD-2) complex (UniProt Q9QUK6 26-835; Q9JHF9 19-160, The source, species and construct of the SPR protein are not stated. Mouse is inferred from the docking receptor (PDB 2Z64) and the mouse models. Limits by convention: TLR4 extracellular domain and ma). The data set is described as follows: SPR; Biacore X100, CM5 chip, amine coupling; running buffer PBS with 0.05% Tween 20, 30 μL/min; peptide gradient 0, 1.25, 2.5, 5 and 10 mM as printed; 1:1 binding model; legend and results: TLR4/MD-2 immobilised and DTP flowed over (the methods say DTP was immobilised). The settings on record: both partners purified.

[5] abbreviates: ELISA, peptide 10 mg/kg i.p. pretreatment, LPS, 16 h.
Setting [6] is: peptide 10 mg/kg i.p. once daily pretreatment, then LPS i.p., 16 h after LPS.
Setting [7] is: peptide 10 mg/kg i.p. pretreatment, LPS, 16 h.

Sequence of Toll-like receptor 4/myeloid differentiation factor 2 (TLR4/MD-2) complex (Q9QUK6 26-835, chain 1 of 2): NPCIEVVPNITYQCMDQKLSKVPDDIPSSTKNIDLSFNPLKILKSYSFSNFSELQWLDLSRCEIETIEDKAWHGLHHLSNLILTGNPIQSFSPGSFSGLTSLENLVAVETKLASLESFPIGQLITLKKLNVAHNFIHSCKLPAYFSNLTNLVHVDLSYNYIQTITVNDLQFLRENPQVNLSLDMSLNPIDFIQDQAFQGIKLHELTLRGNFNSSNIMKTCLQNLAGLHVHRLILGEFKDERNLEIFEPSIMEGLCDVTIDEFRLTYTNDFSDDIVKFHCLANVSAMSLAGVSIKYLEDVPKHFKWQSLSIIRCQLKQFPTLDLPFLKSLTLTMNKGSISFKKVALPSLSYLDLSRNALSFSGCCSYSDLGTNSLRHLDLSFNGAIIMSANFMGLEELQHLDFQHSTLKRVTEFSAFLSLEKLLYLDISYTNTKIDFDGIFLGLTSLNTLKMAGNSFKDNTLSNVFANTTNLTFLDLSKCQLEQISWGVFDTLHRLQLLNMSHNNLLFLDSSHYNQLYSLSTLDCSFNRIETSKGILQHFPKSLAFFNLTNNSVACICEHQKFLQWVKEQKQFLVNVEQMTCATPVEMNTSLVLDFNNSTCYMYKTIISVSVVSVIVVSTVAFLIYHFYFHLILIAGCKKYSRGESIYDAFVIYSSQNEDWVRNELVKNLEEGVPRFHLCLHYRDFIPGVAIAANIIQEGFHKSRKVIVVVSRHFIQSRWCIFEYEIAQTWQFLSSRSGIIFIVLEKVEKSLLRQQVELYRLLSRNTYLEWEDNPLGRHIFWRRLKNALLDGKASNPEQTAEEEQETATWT
Sequence of Toll-like receptor 4/myeloid differentiation factor 2 (TLR4/MD-2) complex (Q9JHF9 19-160, chain 2 of 2): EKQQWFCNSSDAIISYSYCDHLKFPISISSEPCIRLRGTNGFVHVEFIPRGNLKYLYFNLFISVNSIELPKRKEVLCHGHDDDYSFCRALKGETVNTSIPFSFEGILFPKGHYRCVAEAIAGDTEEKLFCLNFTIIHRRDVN
Method for RAW264.7 macrophages: RAW 264.7 cells were maintained in DMEM medium containing 10% (v/v) fetal bovine serum and 1% (v/v) penicillin-streptomycin at 37 °C, 5% CO2.
RAW264.7 cells (3 × 10^4 cells/mL) were plated in 96-well plates in 100 μL DMEM overnight and then cultured in fresh medium containing a 2-fold concentration of peptide for another 24 h. Add 10 μL of CCK-8 solution to each well and incubate for 4 h away from light. Then, the optical density at 450 nm was measured using a microplate reader. Cell viability was determined byCell viability (%) = (OD450 (sample)/OD450 (control)) × 100%(1) where OD450 (sample) is the absorbance at 450 nm of the cells with peptides treated and OD450 (control) is the absorbance at 450 nm of the cells without peptides treated.
Method for in vitro: as §1

With “NWYVKKCLNDVGICKKKCKPEEMHVKNGWAMCGKQRDCCRKDVY (cysteines drawn unpaired) [DTP]”, in data set [1], the “LPS-induced phosphorylation of IKK-β, IκB-α and NF-κB” value is “significantly inhibited”. In addition, in the data set with LPS-induced sepsis model (setting [5]), the “serum IL-1β level” value was “significantly decreased”, the “serum IL-6 level” value is reported as “significantly decreased” and the “serum TNF-α level” value is “significantly decreased”. In addition, the liver injury score result in the data set with LPS-induced sepsis model (H&E, 0- to 3-point scale, peptide 10 mg/kg i.p. pretreatment, LPS, 16 h) is “significantly lower liver injury score than the LPS-treated, TP5-pretreated, and DEFB126-pretreated groups”. In the data set with LPS-induced sepsis model (setting [6]), the “serum ALT level” value was “markedly lower than those in the TP5-pretreated group and DEFB126-pretreated group”; the “serum AST level” value was “markedly lower than those in the TP5-pretreated group and DEFB126-pretreated group”. Also, in the data set with LPS-induced sepsis model (setting [7]), the “liver CAT activity” value is on record as “significantly reversed these effects”, the “liver GSH-Px activity” value was “significantly reversed these effects” and the “liver SOD activity” value is “significantly reversed these effects”. For the same molecule, the “LPS-induced ROS generation” value in the data set with RAW264.7 cells was “remarkably attenuated”. The t1/2 in plasma in data set [2] is 349 ± 69.17 ^a min. Besides, the cell survival rate entry with RAW264.7 macrophages was “higher than 80%”. Further, in the data set with RAW264.7 macrophages (RAW264.7, 2-fold series of concentrations, CCK-8), the “cytotoxicity compared with parental peptides” value is “significantly lower than DEFB126 and TP5”. Also, in data set [3], the “50% neutralization rate value” was “approximately 11.58 ± 2.07 μg/mL”.
“NWYVKKCLNDVGICKKKCKPEEMHVKNGWAMCGKQRDCCVPAD (cysteines drawn unpaired) [DEFB126]”: the half-life at 10 µg/mL in the data set “in vitro” worked out at 5.41 ± 0.885 h. For the same molecule, in the data set on RAW264.7 macrophages, the cell survival rate entry was “higher than 80%”.

B1: hybrid peptide DEFB126 (1-39)-TP5 (peptide)
peptide: NWYVKKCLNDVGICKKKCKPEEMHVKNGWAMCGKQRDCCRKDVY
notes: DEFB126 (1-39): residues 21-59 of human β-defensin 126 (111 amino acids); thymopentin (TP5), the core active fragment of thymopoietin, full-length TP5; whether disulfide bonds form is left open by the authors; also called DTP; DTP peptide; source: synthetic peptide (KangLong Biochemistry, 95% purity)
As to B1, binding in data set [4] was put at a Kd of 2300 nM.

As usually defined, the half-life is the time in which the quantity being followed falls by half. A higher half-life goes with slow loss. The term Kd denotes the concentration at which binding is half-saturated. High values mean weaker binding, low ones tighter binding.
